Columns and labels:
[1] = in vivo; cited from earlier work
[2] = system: HCC4006 cells; assay: In vivo growth of CD26-positive lung cancer cell line HCC4006 in SCID mice (tumor weight); settings: YS110 10 mg/kg intraperitoneal, gefitinib 100 mg/kg oral, days 1 and 4; day 7
[3] = system: MESO1 cells; assay: MTT cell growth assay, MESO1; assay type: cell-based; settings: day 2
Protocol: MESO1 or H2452 cells (2×10^3 cells/well) were inoculated to a 96-well plate. One hour later, cisplatin or pemetrexed was added thereto at 10^−9, 10^−8, 10^−7, 10^−6, 10^−5, or 10^−4 M (n=6). At day 2, MTT assay was conducted.
MESO1 cells (2×10^3 cells/well) were inoculated to a 96-well plate. One hour later, the combination of 0.3, 3, or 10 μM cisplatin and 0.1, 3, or 10 μg/ml YS110, or the combination of 0.03, 0.3, or 1 μM pemetrexed and 0.1, 3, or 10 μg/ml YS110 was added thereto. At day 2, MTT assay was conducted. Significant difference was tested by two-tailed t-test (vs Cont).
MESO1 cells (2×10^3 cells/well) or H2452 cells (2×10^3 cells/well) were inoculated to a 96-well plate. One hour later, 0.3 μM cisplatin-0.1 μM pemetrexed combination, or YS110 (10 μg/ml) plus the 0.3 μM cisplatin-0.1 μM pemetrexed combination was added thereto (n=6). At day 2, MTT assay was conducted. Significant difference was tested by two-tailed t-test (vs Cont).
(§1) Gemcitabine was studied for its effect on the growth of a mesothelioma cell line. A mesothelioma cell line MESO1, JMN, H2452, or H226 (2×10^3 cells/well) was inoculated to a 96-well plate. One hour later, gemcitabine (10^−9, 10^−8, 10^−7, 10^−6, 10^−5, or 10^−4 M) was added thereto (N=6). 2 days later, MTT assay was conducted. Significant difference was tested by two-tailed t-test (vs Cont).
MESO1 cells (2×10^3 cells/well) were inoculated to a 96-well plate. One hour later, gemcitabine (0, 10^−8, 3×10^−8, or 10^−7 M) and YS110 (0, 1, 3, or 10 μg/ml) were added thereto in combination. At day 2, MTT assay was conducted. Significant difference was tested by two-tailed t-test (vs Cont). Next, interaction in concomitant use of medications was studied (n=6). The interaction between YS110 and gemcitabine used concomitantly was analyzed by two-way ANOVA.
(§2) MESO1, JMN, H2452 or H226 cells (2×10^3 cells/well were inoculated to a 96-well plate. One hour later, 3×10^−8 M or 10^−7 M gemcitabine was added thereto by concomitant use with the combination of cisplatin (0, 0.1, 0.3, or 1 μM) and pemetrexed (0, 0.03, 0.1, or 0.3 μM) (n=6). At day 2, MTT assay was conducted.
(§3) The growth inhibitory effects of cisplatin (10^−9 to 10^−4 M) and pemetrexed (10^−9 to 10^−4 M) were compared using the MESO1 and JMN cell lines.
(§4) The growth inhibitory effect of gemcitabine (10^−9 to 10^−4 M) was compared using MESO1, H2452, JMN, and H226 cell lines.

[4] = system: H2452 cells; assay: Boyden chamber invasion assay, H2452; assay type: cell-based; settings: cisplatin 0, 3, or 10 μM and YS110 0, 10, or 20 μg/ml; 24 hours
Protocol: (§5) MESO1 cells or H2452 cells (2.5×10^4 cells/well) were inoculated to a Boyden chamber. One hour later, cisplatin (5, 10, or 30 μM) or pemetrexed (1, 10, or 30 μM) was added thereto (n=5), followed by Boyden chamber invasion assay. 24 hours after the cell inoculation, invasive cells were stained with Diff-Quik-staining kit. Significant difference was tested by two-tailed t-test (vs Cont).
(§6) MESO1 cells or H2452 cells (2.5×10^4 cells/well) were inoculated to a Boyden chamber. One hour later, the combination of cisplatin (0, 3, or 10 μM) and pemetrexed (0, 10, or 30 μM) was added thereto (n=5), followed by Boyden chamber invasion assay. 24 hours after the cell inoculation, invasive cells were stained with Diff-Quik-staining kit. Significant difference was tested by two-tailed t-test (vs Cont).
H2452 cells (2.5×10^4 cells/well) were inoculated to a Boyden chamber. One hour later, the combination of cisplatin (0, 3, or 10 μM) and YS110 (0, 10, or 20 μg/ml) was added thereto (n=5), followed by Boyden chamber invasion assay. 24 hours after the cell inoculation, invasive cells were stained with Diff-Quik-staining kit. Significant difference was tested by two-tailed t-test (vs Cont). Next, the interaction of YS110 with cisplatin-pemetrexed concomitant use was studied. The interaction was analyzed by two-way ANOVA.

[5] = system: MESO1 cells; assay: Boyden chamber invasion assay, MESO1; assay type: cell-based; settings: cisplatin 0, 3, or 10 μM and YS110 0, 10, or 20 μg/ml; 24 hours
Protocol: as §5, §6
MESO1 cells (2.5×10^4 cells/well) were inoculated to a Boyden chamber. One hour later, the combination of cisplatin (0, 3, or 10 μM) and YS110 (0, 10, or 20 μg/ml) was added thereto (n=5), followed by Boyden chamber invasion assay. 24 hours after the cell inoculation, invasive cells were stained with Diff-Quik-staining kit. Significant difference was tested by two-tailed t-test (vs Cont). Next, the interaction of YS110 with cisplatin-pemetrexed concomitant use was studied. The interaction was analyzed by two-way ANOVA.

[6] = system: CD26-positive malignant mesothelioma cell line JMN; settings: mouse, in vivo
Protocol: NOD/SCID (NOD/LtSz-scid) mice were maintained in a microisolator cage within a specific pathogen-free (SPF) facility and allowed to freely take sterilized diet and sterilized water.
1×10^7 cultured JMN cells were subcutaneously administered to 6- to 8-week-old female NOD/SCID mice. […] The same amount of PBS was administered to the control group. When a tumor became evidently visible, the tumor was excised, and its size was measured with a vernier caliper. The estimated tumor volume was determined by calculation according to the expression: π/6×L×W×W (Tomayko M M et al., Cancer Chemother Pharmacol. (1989) 24: 148-54). The statistical difference among the average tumor volumes of these groups were determined by Fisher's protected least-square differences (PLSD) multiple comparison test. Statistical analysis was conducted using SPSS software (IBM, Armonk, N.Y.).

[7] = system: JMN cells; assay: MTT cell growth assay, JMN; assay type: cell-based; settings: gemcitabine 3×10^−10, 10^−9, or 3×10^−8 M and YS110 1, 3, or 10 μg/ml; day 2
Protocol: as §1
JMN cells (2×10^3 cells/well) were inoculated to a 96-well plate. One hour later, gemcitabine (0, 3×10^−10, 10^−9, or 3×10^−8 M) and YS110 (0, 1, 3, or 10 μg/ml) were added thereto in combination. At day 2, MTT assay was conducted. Significant difference was tested by two-tailed t-test (vs Cont). Next, interaction in concomitant use of medications was studied (n=6). The interaction between YS110 and gemcitabine used concomitantly was analyzed by two-way ANOVA.
as §2, §3, §4

[8] = system: JMN cells; assay: In vivo JMN cell growth in SCID mice (tumor weight); settings: YS110 10 mg/kg, intraperitoneal

YS110: humanized anti-CD26 antibody designed based on anti-CD26 mouse antibody 14D10; SEQ ID NO: 17 and 18
safety in phase I clinical trial [1]: demonstrated its safety
effect of YS110 on the effect of gefitinib (tumor weight) [2]: potentiated
effect of YS110 on the cell growth inhibitory effect of pemetrexed ([3]; 0.03, 0.3, or 1 μM pemetrexed and 0.1, 3, or 10 μg/ml YS110): potentiated
effect of YS110 on the cell growth inhibitory effect of cisplatin ([3]; 0.3, 3, or 10 μM cisplatin and 0.1, 3, or 10 μg/ml YS110): potentiated
effect of YS110 on the cell growth inhibitory effect of cisplatin-pemetrexed ([3]; YS110 10 μg/ml plus 0.3 μM cisplatin-0.1 μM pemetrexed): potentiated
effect of YS110 on the growth inhibitory effect of gemcitabine ([3]; gemcitabine 10^−8, 3×10^−8, or 10^−7 M and YS110 1, 3, or 10 μg/ml): potentiated
effect of YS110 on the cell invasion inhibitory action of cisplatin-pemetrexed [4]: synergistically potentiated
effect of YS110 on the cell invasion inhibitory action of cisplatin-pemetrexed [5]: potentiated
average body weight of the mice compared among the groups [6]: did not remarkably differ
effect of YS110 on the growth inhibitory effect of gemcitabine [7]: potentiated
effect of YS110 on the in vivo tumor growth inhibitory effect of cisplatin ([8]; cisplatin 0.5 mg/kg, days 1 and 4, tumor weight day 7): potentiated
effect of YS110 on the in vivo tumor growth inhibitory effect of cisplatin-pemetrexed ([8]; cisplatin 0.5 mg/kg, pemetrexed 50 mg/kg, days 1 and 4, tumor weight day 7): potentiated
inhibitory effect (tumor weight) ([8]; gemcitabine 10 mg/kg, days 2 and 4, day 7): 34%
effect of YS110 on the in vivo tumor growth inhibitory effect of pemetrexed ([8]; pemetrexed 50 mg/kg, days 1 and 4, tumor weight day 7): potentiated

From patent US11273217B2, “Cancer treatment composition combining anti-CD26 antibody and other anticancer agent” (Y's AC Co., Ltd., priority 2015, dated 2022)
